Here are results for one compound from US20020028938A1, “Prostaglandin endoperoxide H synthase biosynthesis inhibitors” (priority 1997, published 2002).

Assay [1] addresses T1, recombinant human Cox-1 (r-hu Cox1) (Homo sapiens, UniProt P23219).
T1 construct: made in house; host or cells: baculovirus/Sf9 insect cells (microsomes)
The assay is described as follows: Recombinant human PGHS-1 enzyme assay (RHUCX1). To be noted: read-out: RHUCX1 % Inh. at Dose. In kind it is biochemical. In a few lines: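 Recombinant enzyme reaction ran 2.5 minutes at room temperature, then was quenched with HCl and neutralized with NaOH. PGE2 formed with and without drug was quantified by EIA against standards in the same milieu. Percent inhibition versus control mean; IC50 by linear regression.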

For assay [2], the target named is T2, Cox-1 in Monocyte U937 cells (Homo sapiens, UniProt P23219).
T2 construct: endogenous in cells; host or cells: U937 monocyte cells (ATCC)
T2 sequence (P23219 24-599): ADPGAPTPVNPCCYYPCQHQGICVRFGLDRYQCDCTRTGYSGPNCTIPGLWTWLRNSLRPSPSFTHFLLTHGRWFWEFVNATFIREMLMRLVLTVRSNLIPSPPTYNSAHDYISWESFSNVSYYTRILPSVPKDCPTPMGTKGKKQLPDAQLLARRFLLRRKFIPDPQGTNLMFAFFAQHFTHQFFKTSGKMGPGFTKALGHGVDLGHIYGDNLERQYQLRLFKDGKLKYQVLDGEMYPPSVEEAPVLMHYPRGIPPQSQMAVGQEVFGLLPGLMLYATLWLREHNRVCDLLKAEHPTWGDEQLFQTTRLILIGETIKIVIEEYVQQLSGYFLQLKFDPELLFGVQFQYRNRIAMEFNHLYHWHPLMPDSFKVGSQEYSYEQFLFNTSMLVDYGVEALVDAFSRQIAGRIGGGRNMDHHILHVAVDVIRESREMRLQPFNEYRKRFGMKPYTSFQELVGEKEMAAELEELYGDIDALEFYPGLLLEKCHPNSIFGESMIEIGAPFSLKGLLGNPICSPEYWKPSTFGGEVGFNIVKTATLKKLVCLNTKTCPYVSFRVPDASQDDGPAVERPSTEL
Briefly: Monocyte U937 cell Cox-1 assay. In kind it is cell-based. To be noted: read-out: U937 IC50 (parenthetical value). On the procedure:
Human amnionic WISH cells were grown to 80% confluence in 48 well plates. Following removal of the growth medium and two washings with Geys Balanced Salt Solutn, 5 ng IL-1β /ml (UBI, Lake Placid, N.Y.) was added to the cells with or without test compound in DMSO (0.01% v/v) in Neuman-Tytell Serumless Medium (GIBCO, Grand Island, N.Y.). Following an 18 hour incubation to allow for the maximal induction of PGHS-2, the conditioned medium was removed and assayed for PGE2 content by EIA analysis as described above.
Monocyte U937 (ATCC, Rockville, Md.) cells were grown in a similar fashion to the WISH cells. After incubation, the conditioned medium was removed and assayed for […] by EIA analysis as described above.

For assay [3], the target named is T3, Human Whole Platelet Cyclooxygenase-1 (Homo sapiens, UniProt P23219).
T3 construct: from tissue; host or cells: human blood: isolated platelets (A4) or heparinised whole blood (A9)
T3 sequence (P23219 24-599): as above
Briefly: Human Whole Platelet Cyclooxygenase-1 assay (HWPX). In kind it is cell-based. To be noted: read-out: HWPX IC50 (parenthetical value). The essentials: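 Washed platelets from healthy-donor ACD blood were pre-incubated with compound for 10 min, then stimulated with calcium ionophore A23187 (8.8 μM final) for 10 min. Reaction stopped with cold 6 mM EDTA; thromboxane in supernatants quantified with a commercial kit.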

The structures appear in SMILES notation.

T1 sequence (P23219 24-599): as above

By IC50 is commonly meant the concentration needed to halve the response being measured. For the compound `NS(=O)(=O)c1ccc(-c2cnn(-c3ccc(F)cc3)c(=O)c2-c2ccc(F)cc2)cc1` [Example 89], the inhibition at 10 µM in assay [1] (10 μM) came out at 40%. Also, in assay [1] (30 μM), the inhibition at 30 µM turned out to be 62%. Besides, the figures for the half-maximal inhibitory concentration (IC50) in assay [2] and in assay [3] were 3800 nM and 2100 nM, respectively.
